Where a name gives a salt, the structure may show the parent alone.

In this assay the target is T1, recombinant human LTA4 hydrolase (rhLTA4H) (Homo sapiens, UniProt P09960).
T1 construct: made in house; host or cells: Spodoptera frugiperda (Sf-9) cells, baculovirus (pFastBac1)
T1 sequence (P09960 1-611): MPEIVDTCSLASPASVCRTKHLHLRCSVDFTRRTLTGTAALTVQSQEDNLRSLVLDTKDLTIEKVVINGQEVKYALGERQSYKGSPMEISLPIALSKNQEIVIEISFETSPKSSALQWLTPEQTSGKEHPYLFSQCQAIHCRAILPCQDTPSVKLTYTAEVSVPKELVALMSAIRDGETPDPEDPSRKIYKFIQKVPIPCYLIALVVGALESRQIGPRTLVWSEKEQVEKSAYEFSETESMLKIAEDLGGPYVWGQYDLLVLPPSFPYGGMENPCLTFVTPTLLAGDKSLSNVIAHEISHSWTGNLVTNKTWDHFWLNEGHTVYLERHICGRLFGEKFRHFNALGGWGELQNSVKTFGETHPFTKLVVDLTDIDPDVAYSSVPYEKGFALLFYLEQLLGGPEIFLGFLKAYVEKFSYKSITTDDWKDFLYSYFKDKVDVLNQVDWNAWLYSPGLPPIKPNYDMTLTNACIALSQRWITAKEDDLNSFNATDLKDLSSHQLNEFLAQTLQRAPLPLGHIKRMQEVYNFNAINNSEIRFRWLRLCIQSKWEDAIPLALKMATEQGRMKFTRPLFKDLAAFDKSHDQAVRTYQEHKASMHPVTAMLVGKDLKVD
In words: Recombinant Human LTA4 Hydrolase Assay for LTA4 Hydrolase Inhibitor Activity. The format is biochemical. The following applies: average of results obtained; LTB4 quantified by enzyme-linked immunoassay. A digest of the protocol:
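LTB4 formation, quantified by EIA after 10 min at rt, was the read-out once 9 ng LTA4 (free acid) was added to recombinant human enzyme (36 ng, Sf-9 expressed) that had sat 10 min with compound. Buffer: 0.1 M potassium phosphate pH 7.4 with fatty-acid-free BSA; IC50 by 4-parameter fit.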
Usually Ki stands for the dissociation constant of the complex between target and ligand, obtained from inhibition or displacement. For the molecule `CC(=O)N1C[C@H]2C[C@@H]1CN2CCc1ccc(Oc2nc3cc(F)ccc3s2)cc1` [Example 235, (R,R)-1-(5-{2-[4-(5-Fluoro-benzothiazol-2-yloxy)-phenyl]-ethyl}-2,5-diaza-bicyclo[2.2.1]hept-2-yl)-ethanone], the Ki is 0.023 µM. As for `CC(=O)N1C[C@H]2C[C@@H]1CN2CCc1ccc(Oc2nc3cc(Cl)ccc3s2)cc1` [Example 274, (R,R)-1-(5-{2-[4-(5-Chloro-benzothiazol-2-yloxy)-phenyl]-ethyl}-2,5-diaza-bicyclo[2.2.1]hept-2-yl)-ethanone], the figure is 0.121 µM.

With `CS(=O)(=O)N1CC2CCC(C1)N2CCOc1ccc(Oc2nc3cccc(F)c3s2)cc1` [Example 211, meso-7-Fluoro-2-{4-[2-(3-methanesulfonyl-3,8-diaza-bicyclo[3.2.1]oct-8-yl)-ethoxy]-phenoxy}-benzothiazole], the Ki came out at 0.159 µM. As for `O=C(CO)N1C[C@@H]2C[C@H]1CN2CCc1cccc(Oc2nc3ccccc3s2)c1` [Example 20, (S,S)-1-(5-{2-[3-(Benzothiazol-2-yloxy)-phenyl]-ethyl}-2,5-diaza-bicyclo[2.2.1]hept-2-yl)-2-hydroxy-ethanone], the figure is 0.073 µM; as for `CC(C)(O)C(=O)N1C2CCC1CN(Cc1ccc(Oc3nc4ccccc4s3)cc1)C2` [Example 53, meso-1-{3-[4-(Benzothiazol-2-yloxy)-benzyl]-3,8-diaza-bicyclo[3.2.1]oct-8-yl}-2-hydroxy-2-methyl-propan-1-one], 0.117 µM. As for `CC(=O)N1[C@@H]2CC[C@H]1C[C@H](NCCc1ccc(Oc3nc4ccc(F)cc4s3)cc1)C2` [Example 209, meso-exo-1-(3-{2-[4-(6-Fluoro-benzothiazol-2-yloxy)-phenyl]-ethylamino}-8-aza-bicyclo[3.2.1]oct-8-yl)-ethanone], the figure is 0.069 µM. As for `CC(=O)N[C@H]1C[C@H]2CC[C@@H](C1)N2Cc1ccc(Oc2nc3c(Cl)cccc3s2)cc1` [Example 71, meso-endo-N-{8-[4-(4-Chloro-benzothiazol-2-yloxy)-benzyl]-8-aza-bicyclo[3.2.1]oct-3-yl}-acetamide], the figure is 0.025 µM; as for `NC(=O)NC1[C@H]2CN(Cc3ccc(Oc4nc5ccccc5s4)cc3)C[C@@H]12` (stereo partly drawn) [Example 140, (R,S)-{3-[4-(Benzothiazol-2-yloxy)-benzyl]-3-aza-bicyclo[3.1.0]hex-6-yl}-urea], 0.019 µM. Consider `CC(=O)N[C@H]1C[C@H]2CC[C@@H](C1)N2CCOc1ccc(Oc2nc3cc(F)ccc3s2)cc1` [Example 216, meso-endo-N-(8-{2-[4-(5-Fluoro-benzothiazol-2-yloxy)-phenoxy]-ethyl}-8-aza-bicyclo[3.2.1]oct-3-yl)-acetamide], for which the Ki stood at 0.1 µM. As for `c1ccc2sc(Oc3ccc(CN4CCC5CNCC54)cc3)nc2c1` (stereo not drawn) [Example 82, 2-[4-(Hexahydro-pyrrolo[3,4-b]pyrrol-1-ylmethyl)-phenoxy]-benzothiazole hydrochloride], the figure is 0.097 µM; as for `NCC(=O)N1C2CCC1CN(Cc1ccc(Oc3nc4ccccc4s3)cc1)C2` [Example 55, meso-2-Amino-1-{3-[4-(benzothiazol-2-yloxy)-benzyl]-3,8-diaza-bicyclo[3.2.1]oct-8-yl}-ethanone], 0.116 µM; as for `NC(=O)N1C[C@H]2C[C@@H]1CN2CCc1ccc(Oc2nc3ccc(Cl)cc3s2)cc1` [Example 246, (R,R)-5-{2-[4-(6-Chloro-benzothiazol-2-yloxy)-phenyl]-ethyl}-2,5-diaza-bicyclo[2.2.1]heptane-2-carboxylic acid amide], 0.04 µM.

Turning to `CC(=O)N1C[C@@H]2C[C@H]1CN2CCOc1ccc(Oc2nc3ccccc3s2)cc1` [Example 9, (S,S)-1-(5-{2-[4-(Benzothiazol-2-yloxy)-phenoxy]-ethyl}-2,5-diaza-bicyclo[2.2.1]hept-2-yl)-ethanone], the Ki was determined as 0.003 µM.

For `NC(=O)N[C@@H]1C[C@H]2CC[C@@H](C1)N2CCc1ccc(Oc2nc3ccc(F)cc3s2)cc1` [Example 179, meso-exo-(8-{2-[4-(6-Fluoro-benzothiazol-2-yloxy)-phenyl]-ethyl}-8-aza-bicyclo[3.2.1]oct-3-yl)-urea], the Ki was 0.047 µM. As for `CC(C)(C)OC(=O)NC1(C(=O)N2C[C@@H]3C[C@H]2CN3Cc2ccc(Oc3nc4ccccc4s3)cc2)CC1` [Example 63, (S,S)-(1-{5-[4-(Benzothiazol-2-yloxy)-benzyl]-2,5-diaza-bicyclo[2.2.1]heptane-2-carbonyl}-cyclopropyl)-carbamic acid tert-butyl ester], the figure is 0.021 µM. As for `O=C(c1cccs1)N1C[C@@H]2C[C@H]1CN2Cc1ccc(Oc2nc3ccccc3s2)cc1` [Example 61, (S,S)-{5-[4-(Benzothiazol-2-yloxy)-benzyl]-2,5-diaza-bicyclo[2.2.1]hept-2-yl}-thiophen-2-yl-methanone], the figure is 0.027 µM; as for `NC(=O)N1C[C@@H]2C[C@H]1CN2Cc1ccc(Oc2nc3ccccc3s2)cc1` [Example 32, (S,S)-5-[4-(Benzothiazol-2-yloxy)-benzyl]-2,5-diaza-bicyclo[2.2.1]heptane-2-carboxylic acid amide], 0.003 µM; as for `NC(=O)N1CC2CN(CCOc3ccc(Oc4nc5ccccc5s4)cc3)CC2C1` (stereo not drawn) [Example 134, 5-{2-[4-(Benzothiazol-2-yloxy)-phenoxy]-ethyl}-hexahydro-pyrrolo[3,4-c]pyrrole-2-carboxylic acid amide], 0.032 µM. In the case of `CS(=O)(=O)N1C[C@@H]2C[C@H]1CN2CCc1ccc(Oc2nc3cccc(F)c3s2)cc1` [Example 232, (S,S)-7-Fluoro-2-{4-[2-(5-methanesulfonyl-2,5-diaza-bicyclo[2.2.1]hept-2-yl)-ethyl]-phenoxy}-benzothiazole], the Ki came to 0.072 µM.

Take `NC(=O)N1C2CCC1CN(Cc1ccc(Oc3nc4ccccc4s3)cc1)C2` [Example 59, meso-3-[4-(Benzothiazol-2-yloxy)-benzyl]-3,8-diaza-bicyclo[3.2.1]octane-8-carboxylic acid amide]: the Ki was determined as 0.174 µM.

Take `CC(=O)N1[C@@H]2CC[C@H]1C[C@H](NCc1ccc(Oc3nc4ccc(C)cc4s3)cc1)C2` [Example 184, meso-exo-1-{3-[4-(6-Methyl-benzothiazol-2-yloxy)-benzylamino]-8-aza-bicyclo[3.2.1]oct-8-yl}-ethanone]: the inhibition constant Ki worked out at 0.406 µM. As to `NC(=O)N1C[C@@H]2C[C@H]1CN2CCc1ccc(Oc2nc3ccccc3s2)cc1` [Example 38, (S,S)-5-{2-[4-(Benzothiazol-2-yloxy)-phenyl]-ethyl}-2,5-diaza-bicyclo[2.2.1]heptane-2-carboxylic acid amide], the Ki came to 0.003 µM. In the case of `CC(=O)N[C@H]1C[C@H]2CC[C@@H](C1)N2Cc1ccc(Oc2nc3c(F)cccc3s2)cc1F` [Example 160, meso-endo-N-{8-[2-Fluoro-4-(4-fluoro-benzothiazol-2-yloxy)-benzyl]-8-aza-bicyclo[3.2.1]oct-3-yl}-acetamide], the Ki came out at 0.001 µM. As for `NC(=O)N[C@H]1C[C@H]2CC[C@@H](C1)N2CCOc1ccc(Oc2nc3c(F)cccc3s2)cc1` [Example 262, meso-endo-(8-{2-[4-(4-Fluoro-benzothiazole-2-yloxy)-phenoxy]-ethyl}-8-aza-bicyclo[3.2.1]oct-3-yl)-urea], the figure is 0.012 µM; as for `CC(=O)N1[C@@H]2CC[C@H]1C[C@H](NCCc1ccc(Oc3nc4c(Cl)cccc4s3)cc1)C2` [Example 275, meso-exo-1-(3-{2-[4-(4-Chloro-benzothiazol-2-yloxy)-phenyl]-ethylamino}-8-aza-bicyclo[3.2.1]oct-8-yl)-ethanone], 0.264 µM. As for `O=S(=O)(c1cccnc1)N1CC2CN(Cc3ccc(Oc4nc5ccccc5s4)cc3)CC2C1` (stereo not drawn) [Example 120, 2-{4-[5-(Pyridine-3-sulfonyl)-hexahydro-pyrrolo[3,4-c]pyrrol-2-ylmethyl]-phenoxy}-benzothiazole], the figure is 0.205 µM; as for `CC(=O)N1CC2CN(CCOc3ccc(Oc4nc5ccccc5s4)cc3)CC2C1` (stereo not drawn) [Example 94, 1-(5-{2-[4-(Benzothiazol-2-yloxy)-phenoxy]-ethyl}-hexahydro-pyrrolo[3,4-c]pyrrol-2-yl)-ethanone], 0.012 µM. As for `CS(=O)(=O)N1CC2CCC(C1)N2CCOc1ccc(Oc2nc3ccc(Cl)cc3s2)cc1` [Example 169, meso-6-Chloro-2-{4-[2-(3-methanesulfonyl-3,8-diaza-bicyclo[3.2.1]oct-8-yl)-ethoxy]-phenoxy}-benzothiazole], the figure is 0.693 µM. For `CCOC(=O)CN1CC2CN(Cc3ccc(Oc4nc5ccccc5s4)cc3)CC2C1` (stereo not drawn) [Example 155, {5-[4-(Benzothiazol-2-yloxy)-benzyl]-hexahydro-pyrrolo[3,4-c]pyrrol-2-yl}-acetic acid ethyl ester], the Ki came out at 0.17 µM.

Regarding `NC(=O)N1CC2CCN(Cc3ccc(Oc4nc5ccccc5s4)cc3)CC2C1` (racemic) [Example 141, (±)-5-[4-(Benzothiazol-2-yloxy)-benzyl]-octahydro-pyrrolo[3,4-c]pyridine-2-carboxylic acid amide], the Ki turned out to be 0.035 µM.

The record behind these values is patent publication US8344008B2 (Janssen Pharmaceutica NV, priority 2007, dated 2013).
